Source: US9493466B2, “Treatment of cancer with TOR kinase inhibitors” (Signal Pharmaceuticals, LLC, priority 2011, dated 2016)

How the values were obtained:
Calu-3 = assay: Cell viability assay for NSCLC lines; type: cell-based, human; conditions: Calu-3, 3 days
Description: (§1) Cell Viability Assay for NSCLC Lines. Cell viability was assessed using the Cell Titer-Glo Luminescent Cell Viability from Promega. The assay is a homogenous method of determining the number of viable cells in culture based on quantitation of the adenosine triphosphate (ATP) present, an indicator of metabolically active cells. The homogenous assay procedure involves adding the single reagent (CellTiter-Glo Reagent) directly to cells cultured in serum-supplemented medium. Cells were plated into a 96-well flat bottom plate (Costar Catalog Number 33595) at densities that were previously optimized for each cell line. The cells were incubated overnight in 5% CO2 at 37° C. The following day, compound dilutions were prepared and all concentrations were assayed in triplicate. The cells were incubated with Compound 1 (0.03 μM, 0.1 μM, 0.3 μM, 1 μM, 3 μM, 10 μM and 30 μM for NSCLC cells) in 5% CO2 at 37° C. for 3 days. After a 3-day incubation period, 100 μL of CellTiter-Glo reagent was added to each well for 2 minutes with shaking and further incubated for 10 minutes (no shaking) at room temperature to stabilize the signal. The luminescence was measured on the VICTOR X2 multilabel plate reader. The percent growth inhibition was calculated using the DMSO control in the same plate (no compound) response as 100% cell growth. The average values from triplicates were plotted to obtain IC50 values using software XLfit from IDBS. The formula used for determining IC50 in XLfit was model number 205, which utilizes a 4 Parameter Logistic Model or Sigmoidal Dose-Response Model to calculate the IC50 values. All IC50 values are reported as an average from either two independent experiments or a single experiment.

NCI-H1299 = assay: Cell viability assay for NSCLC lines; type: cell-based, human; conditions: NCI-H1299, 3 days
Description: as §1

NCI-H1437 = assay: Cell viability assay for NSCLC lines; type: cell-based, human; conditions: NCI-H1437, 3 days
Description: as §1

NCI-H23 = assay: Cell viability assay for NSCLC lines; type: cell-based, human; conditions: NCI-H23, 3 days
Description: as §1

NCI-H460 = assay: Cell viability assay for NSCLC lines; type: cell-based, human; conditions: NCI-H460, 3 days
Description: as §1

NCI-H596 = assay: Cell viability assay for NSCLC lines; type: cell-based, human; conditions: NCI-H596, 3 days
Description: as §1

NCI-H727 = assay: Cell viability assay for NSCLC lines; type: cell-based, human; conditions: NCI-H727, 3 days
Description: as §1

BT-549 = assay: Growth inhibition assay for breast cancer; type: cell-based; conditions: BT-549 (Basal, TN), 96 hours
Excerpt: (§2) Growth Inhibition Assay for Breast Cancer (BC) (Compound 1). All breast cancer cell lines were maintained and tested in appropriate culture media. The seeding density for each cell line was optimized to ensure assay linearity in 384-well plates.
(§3) Increasing concentrations of Compound 1 were spotted via an acoustic dispenser (EDC ATS-100) into an empty 384-well plate. Compound 1 was spotted in a 10-point serial dilution fashion (3-fold dilution) in duplicate within the plate. The dimethyl sulfoxide (DMSO) concentration was kept constant for a final assay concentration of 0.1% DMSO. Plates were replicated for use against different cell lines and testing periods. After compound plate replication, all plates were sealed (Agilent ThermoLoc) and stored at −20° C. for up to 1 month. When ready for testing, plates were removed from the freezer, thawed, and unsealed just prior to the addition of the test cell.
(§4) Prior to testing, cells were grown and expanded in culture flasks to provide sufficient amounts of starting material. Cells were then diluted to their desired densities and added directly to the Compound 1-spotted 384-well plates. Cells were allowed to grow for 96 hours at 37° C./5% CO2. At the time of setup (t0), initial cell number was assessed via a viability assay (Cell Titer-Glo) and read for luminescence. After 96 hours, cell viability of Compound 1-treated cells was assessed via Cell Titer-Glo and read for luminescence.
(§5) Cell lines were assayed for growth inhibition by Compound 1 for at least two independent tests. All data was normalized and represented as a percentage of the DMSO-treated control cells. […] The potency of Compound 1 in different subtypes of breast cancer cell lines is shown in FIG. 7A, while the correlation of Compound 1 sensitivity to ER, HER, PIK3CA, and TP53 status is shown in FIG. 7B.

EFM-192A = assay: Growth inhibition assay for breast cancer; type: cell-based; conditions: EFM-192A (Luminal, Her2+), 96 hours
Excerpt: as §2, §3, §4, §5

EFM-19 = assay: Growth inhibition assay for breast cancer; type: cell-based; conditions: EFM-19 (Luminal, ER+), 96 hours
Excerpt: as §2, §3, §4, §5

HCC1500 = assay: Growth inhibition assay for breast cancer; type: cell-based; conditions: HCC1500 (Luminal, ER+), 96 hours
Excerpt: as §2, §3, §4, §5

HCC2157 = assay: Growth inhibition assay for breast cancer; type: cell-based; conditions: HCC2157 (Basal, TN), 96 hours
Excerpt: as §2, §3, §4, §5

HCC38 = assay: Growth inhibition assay for breast cancer; type: cell-based; conditions: HCC38 (Basal, TN), 96 hours
Excerpt: as §2, §3, §4, §5

HCC70 = assay: Growth inhibition assay for breast cancer; type: cell-based; conditions: HCC70 (Basal, TN), 96 hours
Excerpt: as §2, §3, §4, §5

HS578T = assay: Growth inhibition assay for breast cancer; type: cell-based; conditions: HS578T (Basal, TN), 96 hours
Excerpt: as §2, §3, §4, §5

MDA-MB-157 = assay: Growth inhibition assay for breast cancer; type: cell-based; conditions: MDA-MB-157 (Basal, TN), 96 hours
Excerpt: as §2, §3, §4, §5

MDA-MB-175-VII = assay: Growth inhibition assay for breast cancer; type: cell-based; conditions: MDA-MB-175-VII (Luminal, ER+), 96 hours
Excerpt: as §2, §3, §4, §5

MDA-MB-361 = assay: Growth inhibition assay for breast cancer; type: cell-based; conditions: MDA-MB-361 (Luminal, Her2+), 96 hours
Excerpt: as §2, §3, §4, §5

MDA-MB-415 = assay: Growth inhibition assay for breast cancer; type: cell-based; conditions: MDA-MB-415 (Luminal, ER+), 96 hours
Excerpt: as §2, §3, §4, §5

MDA-MB-435 = assay: Growth inhibition assay for breast cancer; type: cell-based; conditions: MDA-MB-435 (Basal, TN), 96 hours
Excerpt: as §2, §3, §4, §5

MDA-MB-468 = assay: Growth inhibition assay for breast cancer; type: cell-based; conditions: MDA-MB-468 (Basal, TN), 96 hours
Excerpt: as §2, §3, §4, §5

SK-BR-3 = assay: Growth inhibition assay for breast cancer; type: cell-based; conditions: SK-BR-3 (Luminal, Her2+), 96 hours
Excerpt: as §2, §3, §4, §5

ZR-75-1 = assay: Growth inhibition assay for breast cancer; type: cell-based; conditions: ZR-75-1 (Luminal, ER+), 96 hours
Excerpt: as §2, §3, §4, §5

**Q.** Which results are given for `CO[C@H]1CC[C@H](N2C(=O)CNc3ncc(-c4ccc(C(C)(C)O)nc4)nc32)CC1` [Compound 1, 7-(6-(2-hydroxypropan-2-yl)pyridin-3-yl)-1-((1r,4r)-4-methoxycyclohexyl)-3,4-dihydropyrazino-[2,3-b]pyrazin-2(1H)-one]?
**A.** IC50 (Calu-3): 302 nM; IC50 (NCI-H1299): 1230 nM; IC50 (NCI-H1437): 975 nM; IC50 (NCI-H23): 2210 nM; IC50 (NCI-H460): 370 nM; IC50 (NCI-H596): 2200 nM; IC50 (NCI-H727): 288 nM; GI50 (BT-549): 149 nM; GI50 (EFM-192A): 192 nM; GI50 (EFM-19): 57.2 nM; GI50 (HCC1500): 24.8 nM; GI50 (HCC2157): 399 nM; GI50 (HCC38): 2950 nM; GI50 (HCC70): 172 nM; GI50 (HS578T): 343 nM; GI50 (MDA-MB-157): 4340 nM; GI50 (MDA-MB-175-VII): 40.8 nM; GI50 (MDA-MB-361): 65.7 nM; GI50 (MDA-MB-415): 169 nM; GI50 (MDA-MB-435): 222 nM; GI50 (MDA-MB-468): 1860 nM; GI50 (SK-BR-3): 121 nM; GI50 (ZR-75-1): 32.1 nM
